# Legend:
# urease enzyme = urease enzyme (Canavalia ensiformis, UniProt P07374); assay: biochemical; type: biochemical; conditions: for inhibition at 50 µg/mL: read-out: Percentage inhibition at 50 ug/mL; for inhibition at 100 µg/mL: read-out: Percentage inhibition at 100 ug/mL
# Experimental: Antiurease activity of the synthesized compounds was determined by using the modified phenol-hypochlorite method. Varying concentrations were used to prepare the urease inhibition curve of Thiourea (a known inhibitor of Urease) in the reaction mixture. Phosphate buffer solution of pH 7 containing 1 unit of enzyme was added about 200 µl in the test tube which was followed by the addition of 230 µl of phosphate buffer and 20 µl of thiourea from a scrupulous stock solution for the particular concentration of thiourea in the reaction mixture respectively. Test sample solutions were added instead of thiourea solution in case of test samples. The reaction mixture were mixed and incubated at 25°C for 5 min. 400 µl of urea stock (20 mM) was added in each test tube. In order to allow the action of urease on urea, all the test tubes were incubated at 40°C.
# Phenol hypochlorite reagent (1150 µl) was added after 10 min incubation at 40°C. Test tubes were again incubated at 56°C for 25 min. A blue coloured complex was formed in the reaction mixture. The samples were allowed to cool for 5 min and then their absorbance values were measured at 625 nm and the %age inhibition was calculated. Experiment was repeated three times to get the SD values.
# Staphylococcus aureus = assay: Antibacterial activity, disc diffusion method; type: cell-based; conditions: for inhibition at 40 µg/mL: read-out: Staphylococcus aureus 40 ug/ml (percentage inhibition); for inhibition at 100 µg/mL: read-out: Staphylococcus aureus 100 ug/ml (percentage inhibition)
# Source text: (§1) Disc diffusion method was adopted to test the antibacterial activity of synthesized compounds 2a-10 against […] different bacterial strains. Ampiciline was used as positive control to check antibacterial activity of synthesized compounds. The bacterial strains employed were: Escherichia coli, Bacillus subtillus, Shigella flexneri, Staphylococcus aureus, Pseudomonas aeroginosa and Salmonella typhi.
# (§2) Disc diffusion method was used for the determination of antibacterial activity. synthetic organic compounds were examined to evaluate their antibacterial potential against four different strains of bacteria i.e. Staphlococcus aureus (Gram + ive), Pseudomonas- aeroginosa (Gram−ive) and Escherichia coli (Gram−ive), Bacillus subtilis (Gram + ive), Salmonella typhi (Gram−ive) and Shigella flexneri (−ive). The synthetic organic compounds were dissolved in an appropriate solvent to get the solution of known concentration (5 µg/µl or 10 µg/µl). In order to prepare discs of different potencies known volume of extract/synthetic organic compound solution was applied on the discs, air dried and used. After preparation of the sterilized nutrient agar and nutrient broth medium, the sterilized nutrient agar medium was poured under aseptic conditions into sterile glass petri dishes/plates. A known volume of bacterial growth culture can also be poured on the surface of agar medium solidified in petri dishes. After inoculation petri plates were kept at room temperature for 15–30 minutes so that the poured medium is adsorbed. All the discs, including test sample, +ive and –ve controls were placed onto the inoculated nutrient agar medium solidified in petri dishes with the help of sterile forceps and incubated the petri plates at 37°C±2°C for 16–24 hours. Zone of inhibition was measured in mm using ordinary scale. Experiment was repeated three times to get the SD values.
# Bacillus subtillus = assay: Antibacterial activity, disc diffusion method; type: cell-based; conditions: for inhibition at 100 µg/mL / IC50: Bacillus; for inhibition at 100 µg/mL: 100 ug/ml, read-out: Bacillus subtillus 100 ug/ml (percentage inhibition); for IC50: read-out: Bacillus subtillus IC50 ug/ml
# Source text: as §1, §2
# [1] = Nitric oxide (NO) scavenging activity (sodium nitropruside / Griess reagent); conditions: for Percentage scavenging activity at 50 ug/ml / Percentage scavenging activity at 100 ug/ml: NO; for IC50: NO scavenging
# Experimental: Solutions of known concentration were prepared by dissolving the synthesized compounds in appropriate solvents. A mixture of sample solution (20 µl), 10 mM sodium nitropruside solution (200 µl) and phosphate buffer of 7.4 pH (1780 µl) was taken in a dry test tube and the mixture was incubated at 37°C for 2 hours. 200 µl Griess reagent (0.3% Sulphanilic acid in glacial acetic acid, 0.1% Naphthyl ethylene diamine HCL (NED): Mixed equal volume of both solutions just before use) was added after the incubation period is over. After 20 min keeping the solution at room temperature, its absorbance at 528 nm was measured. Each sample was analyzed in triplicate. Positive control of any known antioxidant and control of all samples were run in parallel. Use of negative control was to calibrate the instrument. Sample blanks were also prepared in case if the samples were coloured. Correction in the absorbance values was made by subtracting the sample blank reading from the sample reading.
# Sequence of urease enzyme (P07374 whole entry, looked up): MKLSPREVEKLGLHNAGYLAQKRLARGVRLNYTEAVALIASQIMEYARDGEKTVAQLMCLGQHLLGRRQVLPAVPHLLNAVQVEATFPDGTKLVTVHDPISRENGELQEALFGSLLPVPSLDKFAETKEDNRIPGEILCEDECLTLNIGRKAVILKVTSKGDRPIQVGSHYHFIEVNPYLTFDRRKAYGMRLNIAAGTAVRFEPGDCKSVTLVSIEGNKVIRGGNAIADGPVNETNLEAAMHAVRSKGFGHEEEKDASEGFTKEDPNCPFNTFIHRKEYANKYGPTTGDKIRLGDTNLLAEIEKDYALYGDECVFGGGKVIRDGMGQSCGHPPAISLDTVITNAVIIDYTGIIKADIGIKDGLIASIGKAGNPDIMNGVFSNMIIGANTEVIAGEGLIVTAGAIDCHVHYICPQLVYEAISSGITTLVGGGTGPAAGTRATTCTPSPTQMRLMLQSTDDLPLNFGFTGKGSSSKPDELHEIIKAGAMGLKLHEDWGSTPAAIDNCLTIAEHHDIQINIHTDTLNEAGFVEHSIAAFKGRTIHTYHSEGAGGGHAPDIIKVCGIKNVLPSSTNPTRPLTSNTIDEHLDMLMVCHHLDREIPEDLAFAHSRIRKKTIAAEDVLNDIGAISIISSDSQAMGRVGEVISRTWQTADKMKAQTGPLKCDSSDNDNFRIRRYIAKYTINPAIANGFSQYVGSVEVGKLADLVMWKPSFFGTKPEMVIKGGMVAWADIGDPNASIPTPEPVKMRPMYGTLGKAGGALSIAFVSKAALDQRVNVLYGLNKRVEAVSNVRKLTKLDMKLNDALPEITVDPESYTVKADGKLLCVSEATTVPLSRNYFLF
Compound,IC50 (urease enzyme) [µM],inhibition at 50 µg/mL (urease enzyme) [%],inhibition at 100 µg/mL (urease enzyme) [%],activity against Staphylococcus aureus (in words) (Staphylococcus aureus),inhibition at 40 µg/mL (Staphylococcus aureus; Staphylococcus aureus) [%],inhibition at 100 µg/mL (Staphylococcus aureus; Staphylococcus aureus) [%],activity against Bacillus subtillus (in words) (Bacillus subtillus),inhibition at 100 µg/mL (Bacillus subtillus) [%],IC50 (Bacillus subtillus) [µg/mL],melting point [°C],nitric oxide scavenging activity (in words) [1],Percentage scavenging activity at 50 ug/ml [1] [%],Percentage scavenging activity at 100 ug/ml [1] [%],"IC50 (Staphylococcus aureus; Staphylococcus aureus, read-out: Staphylococcus aureus IC50 ug/ml) [µg/mL]",IC50 [1] [µg/mL],urease inhibition activity (in words) (urease enzyme; 50 and 100 µg/ml tested)
"C#CCOc1ccc([N+](=O)[O-])cc1 [Compound 2f, 1-nitro-4-(prop-2-ynyloxy)benzene]",360,44 ± 0.43,65.8 ± 0.18,inactive,18.7 ± 0.3,39 ± 0.4,batter activity,57.9 ± 0.25,87.5,129,did not show any significant results,32±0.10,47.01±0.27,–,–,–
"C#CCOc1ccc(S(=O)(=O)c2ccc(OCC#C)cc2)cc1 [Compound 4b, 4,4′-sulfonylbis((prop-2-ynyloxy)benzene)]",217,32 ± 0.28,74.9 ± 0.13,moderate activity,26.9 ± 0.35,53 ± 0.7,–,50.9 ± 0.34,97.6,136,–,15.33±0.12,59±0.15,94.2,89.6,–
"C#CCNc1ccc(Br)c(C)c1 [Compound 8c, 4-bromo-3-methyl-N-(prop-2-ynyl)aniline]",–,32 ± 0.38,45.26 ± 0.295,–,15.9 ± 0.69,35 ± 0.2,–,36 ± 0.39,–,40.85,–,33.66±0.09,62.8±0.19,–,78,did not show any satisfactory results

# Reference: paper PMC4278708, “A Convenient Method for the Synthesis of (Prop-2-Ynyloxy)Benzene Derivatives via Reaction with Propargyl Bromide, Their Optimization, Scope and Biological Evaluation” (PLoS ONE, 2014)
